Test results from patent publication US20090220516A1, “Neuroprotection of retinal ganglion cells” (priority 2005, published 2009).

Experiments:
rat P2X7 receptor = target: T1, rat P2X7 receptor (Rattus norvegicus, UniProt Q64663); conditions: cited from earlier work
T1 sequence (Q64663 1-595): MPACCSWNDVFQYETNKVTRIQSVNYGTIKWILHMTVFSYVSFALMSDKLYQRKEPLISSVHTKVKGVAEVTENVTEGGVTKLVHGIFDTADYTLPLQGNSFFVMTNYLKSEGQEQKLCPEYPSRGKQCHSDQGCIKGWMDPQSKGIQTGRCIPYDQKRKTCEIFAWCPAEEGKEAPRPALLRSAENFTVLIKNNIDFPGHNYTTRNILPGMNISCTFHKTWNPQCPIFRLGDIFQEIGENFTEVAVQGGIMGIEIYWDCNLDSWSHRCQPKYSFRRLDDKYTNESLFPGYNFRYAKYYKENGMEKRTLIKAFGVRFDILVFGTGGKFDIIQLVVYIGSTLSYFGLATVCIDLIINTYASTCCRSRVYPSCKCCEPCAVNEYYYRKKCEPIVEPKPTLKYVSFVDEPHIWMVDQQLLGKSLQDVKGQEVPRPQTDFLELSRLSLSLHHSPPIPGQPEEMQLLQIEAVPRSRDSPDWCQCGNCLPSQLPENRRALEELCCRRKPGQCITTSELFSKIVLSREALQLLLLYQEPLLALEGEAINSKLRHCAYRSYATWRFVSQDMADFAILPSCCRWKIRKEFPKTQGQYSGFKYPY

retinal ganglion cells = assay: Cell viability studies: labeled retinal ganglion cells surviving after 24 hrs in mixed retinal cultures; type: cell-based, rat; conditions: 300 uM ATP alone, 24 hrs
Experimental: Pups PD2-6 from untimed pregnant Long-Evan rats (Jackson Laboratory Inc., Bar Harbor, Me.) were back-labeled by the injection of FluoroGold derivative aminostilbamidine (Molecular Probes, Eugene, Oreg.) based upon standard protocols. […] Using a Hamilton syringe affixed to a micromanipulator, a needle was inserted 0.8 mm lateral from the midline and 0.8 mm anterior to Bregma's line and a total of 2.5 μl dye was delivered to each side at a depth of 2 mm and 1 mm. The needle was retracted after a delay of 2 min to allow dye absorption and the wound was closed with 2-3 sutures. Preliminary examination of labeled retinal whole mounts confirmed an even distribution of dye, showing all cells were stained 2 days after injection, with no further increase in the number of labeled cells in subsequent days. Consequently, retinas containing labeled ganglion cells were dissociated 2-6 days after injection. Animals were sacrificed by i.p. injection of 50/5 mg/kg Ketamine/Xylazine followed by an overdose, in accordance with University of Pennsylvania IACUC approved protocols and the ARVO Statement on the Use of Animals in Ophthalmic and Vision Research.
The retina was dissected from each globe, washed in sterile Hanks' balanced salt solution (HBSS, Gibco, Inc Invitrogen Corp., Carlsbad, Calif.), then incubated in HBSS containing activated papain (4.5 U/ml; Worthington Biochemical Corp., Lakewood, N.J.) for 12 minutes at 37° C. Retinas were washed twice and triturated 50 times with a 1-ml glass pipette to dissociate cells. Cells were plated onto twelve 12-mm coverslips previously coated with poly-L-lysine. […] Retinal cells were incubated at 37° C. with 5% CO2.
Drugs were added to the culture medium at the time when cells were plated onto coverslips. […] All counts were performed in a masked fashion. In experiments involving antagonist pretreatment, drugs were added to the medium at the time of plating. After preincubation at 37° C., stock concentrations of BzATP were added directly to the cells to give the final concentration shown.
Data are presented as mean±standard error of the mean. Significance was evaluated using a Student's unpaired t test, with a p value <0.05 signifying significance. For cell viability studies, the number of experiments, n, represents the number of coverslips from which 80 fields were measured and averaged. All values were normalized to the mean control level for that day's matched set of experiments to control for variation in plating efficiency.

retina eyecup = assay: Pressure-triggered ATP release from the bovine retina eyecup; conditions: 30 μM NPPB, 15 minutes preincubation and in medium
Excerpt: C. ATP release by increased extracellular pressure is inhibited by the general chloride channel blocker NPPB, indicating physiologic significance. […] The ATP levels were normalized with the non-pressure and non NPPB eyecup control levels (white bar). Bars represent the mean±standard error. Numbers indicates the number of retina eyecups per experiment. We performed ANOVA test (Dunnett post-test) to obtain the significant differences indicated by a * symbol (p<0.05) as significant difference with control and ** (p<0.05) as significant difference with the pressure challenged eyecups.

SMILES | EC50 (rat P2X7 receptor) [µM] | effect on ganglion cell survival (retinal ganglion cells) | effect on ATP release induced by 20 mm Hg rise in extracellular pressure (retina eyecup)
Nc1ncnc2c1ncn2C1OC(COP(=O)(O)OP(=O)(O)OP(=O)(O)O)C(O)C1O (stereo not drawn) [ATP] | 300 | small but significant increase in cell survival | 
O=C(O)c1cc([N+](=O)[O-])ccc1NCCCc1ccccc1 [NPPB, 5-nitro-2-(3-phenylpropyl-amino)benzoic acid] |  |  | inhibits the ATP release
